Like-named read-outs stand apart in the source and are kept apart here.
Experiments:
TZM-bl cells = assay type: cell-based; settings: CellTiter-Glo, mean of n = 3 replicates; for viability 0.26 µM: peptide 0.26 µM; for viability 1.3 µM: peptide 1.3 µM; for viability 6.5 µM: peptide 6.5 µM
Description: The cell viability after addition of peptides to TZM–bl cells was studied via the CellTiter–Glo assay. To this end, 10,000 cells were seeded and on the next day serial diluted peptides were added. After 3 days the supernatant was removed and 100 µL CellTiter–Glo Reagent 1:1 diluted in PBS was added. After 10 min 50 µL was transferred to white microplate and luminescence was recorded by Orion microplate luminometer.
2. Cell Viability of Representatively Selected Peptides
Figure S 2 Cell Viability normalized to 100% metabolic activity as determined by CellTiterGlo Assay of 57 representatively selected peptides from the library. The selection represents infectivity enhancing and not […]
concentration. Error bars indicate standard deviation from triplicate measurements. Source data for Figure S2 […]
Figure S3 Cell Viability normalized to 100% metabolic activity determined by CellTiterGlo Assay of 20 peptides reported in literature. 33,34,43–48,35–42 Cell viability (> 80%) is maintained for all peptides at 1.3 µM concentration regardless of the preparation method, which is A PNF formation method by dilution of 10 mg/mL peptide stock in DMSO in PBS to 1 mg/mL or B preparation according to literature reported protocol (SI Section 8). Error bars indicate standard deviation from triplicate measurements. Source data for Figure S3 is provided.

[1] = Conversion rate (CR) assay with fluorescamine; assay type: physicochemical; set-up: key to CR: % = 100−100×filtrate/original fluorescence intensity
How it was run: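 Peptide monomer conversion into nanostructures was quantified by separating free monomer via 3 kDa ultrafiltration, then labelling amines in filtrate and whole sample with fluorescamine in DMSO. CR was derived as 100 − 100 × (filtrate/original fluorescence), triplicate means with SD.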

[2] = ref sieste 2021 or Schilling2019, cited from earlier work
From the text: Supplement 41467_2023_40663_MOESM7_ESM.zip/FigS17.csv, table | column: Conversion Rate / % ( from sieste 2021 or Schilling2019)

[3] = previously reported peptides only

| Substance | viability 0.26 µM (TZM-bl cells) | viability 1.3 µM (TZM-bl cells) | viability 6.5 µM (TZM-bl cells) | Conversion Rate / % ([1]; fluorescamine assay) [%] | Conversion Rate / % [1] [%] | further results |
| --- | --- | --- | --- | --- | --- | --- |
| CEFEFQFNMWQ [TM140] | 125.8 | 116.7 | 98.23 | 98.63 | – | – |
| CEIEIQI [AR2/ TM142] | – | – | – | – | – | Conversion Rate / % ( from sieste 2021 or Schilling2019) [2]: 59% |
| CEIEIQINM [TM144] | – | – | – | – | – | Conversion Rate / % ( from sieste 2021 or Schilling2019) [2]: 43% |
| CHLHLQL [CN9] | 107.2 | 104.6 | 96.74 | 96.58 | – | – |
| CKAKAQA [TM155] | – | – | – | – | – | Conversion Rate / % ( from sieste 2021 or Schilling2019) [2]: 44% |
| CKAKAQANM [BL9] | – | – | – | 57.73 | 57.73 | Conversion Rate / % ( from sieste 2021 or Schilling2019) [2]: 38% |
| CKAKAQANMWQ [BL8] | – | – | – | 92.9 | 92.9 | Conversion Rate / % ( from sieste 2021 or Schilling2019) [2]: 92% |
| CKFKFQFNM [BL3] | – | – | – | 99.03 | 99.03 | Conversion Rate / % ( from sieste 2021 or Schilling2019) [2]: 88% |
| CKFKFQFW [TM72] | 91.88 | 85.39 | 82.4 | – | – | – |
| CKFKQFF [CK15] | – | – | – | 90.05 | 90.05 | – |
| CKFKQFFNM [CK14] | 126.1 | 113.2 | 106.7 | – | – | – |
| CKFKQFFNMWQ [CK13] | 122.3 | 108 | 88.49 | 98.72 | 98.72 | – |
| CKIKIQI [MG3b] | 107.8 | 105.2 | 91.32 | – | – | Conversion Rate / % ( from sieste 2021 or Schilling2019) [2]: 54% |
| CKIKIQINM [MG2] | – | – | – | 79 | 79 | Conversion Rate / % ( from sieste 2021 or Schilling2019) [2]: 72% |
| CKIKIQINMWQ | – | – | – | – | – | CR / % ([1]; Fig. S7 panel B, conversion rate, fluorescamine assay): 89.1%; CR ([1]; conversion rate, fluorescamine assay): 89.15 |
| CKIKIQINMWQ [MG1] | – | – | – | 91.29 | 91.29 | Conversion Rate / % ( from sieste 2021 or Schilling2019) [2]: 87% |
| CKIKQII [MG4a] | – | – | – | – | – | Conversion Rate / % ( from sieste 2021 or Schilling2019) [2, 3]: 55% |
| CKIKQIINM [BL1] | 107.4 | 104.1 | 87.1 | – | – | Conversion Rate / % ( from sieste 2021 or Schilling2019) [2, 3]: 45% |
| CKWKWQW [KB4] | 110.3 | 107 | 96.91 | – | – | – |
| CQFQFQF [QBL4] | 110.4 | 111.2 | 99.59 | – | – | – |
| CRFRFQF [CN10] | 93.96 | 90.72 | 89.78 | 98.13 | – | – |
| CRFRVPF [CN8] | – | – | – | 97.05 | – | – |
| CSISIQINM [TM145] | – | – | – | – | – | Conversion Rate / % ( from sieste 2021 or Schilling2019) [2]: 86% |
| HHHHKIKIKIKIYYYY [TM6] | 112.4 | 103.8 | 86.78 | – | – | – |
| KAKAQA [JJA2 / TM153] | 119.1 | 118.6 | 109.1 | 0.3138 | 0.3138 | – |

| Substance | viability 0.26 µM (TZM-bl cells) | viability 1.3 µM (TZM-bl cells) | viability 6.5 µM (TZM-bl cells) | Conversion Rate / % ([1]; fluorescamine assay) [%] | Conversion Rate / % [1] [%] | further results |
| --- | --- | --- | --- | --- | --- | --- |
| KFKFKFQF [TG18] | – | – | – | – | – | Conversion Rate / % ( from sieste 2021 or Schilling2019) [2, 3]: 94% |
| KFKFQFNM [BL6a] | – | – | – | 98.53 | 98.53 | Conversion Rate / % ( from sieste 2021 or Schilling2019) [2]: 91% |
| KFKFQFW [TM71] | 107.5 | 104.2 | 102.2 | – | – | – |
| KIKIKIKIYYYY [JR7] | 98.76 | 92.93 | 78.89 | – | – | – |
| KIKIKIQI [TG13] | – | – | – | – | – | Conversion Rate / % ( from sieste 2021 or Schilling2019) [2, 3]: 80% |
| KIKIKIQINMWQ [VH9] | 103.6 | 97.29 | 82.19 | – | – | – |
| KIKIQI [JJA4] | – | – | – | 32.82 | 32.82 | Conversion Rate / % ( from sieste 2021 or Schilling2019) [2]: 5% |
| KIKIQIC [TM112 / CN11] | 99.13 | 101.3 | 97.07 | 51.55 | – | – |
| KIKIQINMWQ [JG1] | – | – | – | 95.68 | 95.68 | Conversion Rate / % ( from sieste 2021 or Schilling2019) [2]: 93% |
| KIKQII [msis21] | – | – | – | 19.94 | 19.94 | Conversion Rate / % ( from sieste 2021 or Schilling2019) [2, 3]: 6% |
| KIKQIINM [JGA2] | 123.3 | 117.7 | 101.1 | – | – | – |
| QCKAKAQANMWQ [CK22] | 96.23 | 96.71 | 85.72 | 89.28 | 89.28 | – |
| QCKFKFQF [CK9] | 104.7 | 139.5 | 96.02 | – | – | – |
| QCKFKFQFNM [CK8] | – | – | – | 98.94 | 98.94 | – |
| QCKFKFQFNMWQ [CK7] | 107 | 97.9 | 88.11 | 98.91 | 98.91 | – |
| QCKFKQFFNM [CK11] | – | – | – | 98.67 | 98.67 | – |
| QCKFKQFFNMWQ [CK10] | 119.6 | 108.9 | 99.32 | 98.72 | 98.72 | – |
| QCKIKIQI [CK3] | 95.48 | 97.81 | 91.95 | – | – | – |
| QCKIKIQINM [CK2] | 114.5 | 100.8 | 83.71 | 89.7 | 89.7 | – |
| QCKIKIQINMWQ [EF-C opt] | 100.5 | 106.5 | 85.71 | 93.68 | 93.68 | – |
| RGDCKFKFQF [TM64/ CN15] | 108.7 | 107.1 | 101 | 85.47 | – | – |
| RGDCKIKIQINM [TM45] | 111.8 | 107.9 | 102.5 | – | – | – |
| RGDKIKIQIC [MG7/CN1] | 116.2 | 110.7 | 92.54 | – | – | – |
| RGDSKIKIQIC [TM113 / RC11] | 92.36 | 89.65 | 83.18 | – | – | – |

Source: publication PMC10447463, “Data-mining unveils structure–property–activity correlation of viral infectivity enhancing self-assembling peptides” (Nature Communications, 2023)
